Experimental data published in PMC5390315 (Scientific Reports, 2017).
Like-named read-outs stand apart in the source and are kept apart here.

What was measured:
HeLa = test: Antiproliferative MTT assay, HeLa; format: cell-based, human; conditions: Homo sapiens, HeLa, 72 h, mean ± SE
Description: (§1) Human T-cell leukemia (Jurkat) and human B-cell leukemia (SEM and RS4;11) cells were grown in RPMI-1640 medium (Gibco, Milano, Italy). Breast adenocarcinoma (MCF-7), human cervix carcinoma (HeLa), human lung adenocarcinoma (A549) and human colon adenocarcinoma (HT-29) cells were grown in DMEM medium (Gibco, Milano, Italy), all supplemented with 115 units/mL penicillin G (Gibco, Milano, Italy), 115 μg/mL streptomycin (Invitrogen, Milano, Italy), and 10% fetal bovine serum (FBS; Invitrogen, Milano, Italy). Stock solutions (10 mM) of the different compounds were obtained by dissolving them in DMSO. Individual wells of a 96-well tissue culture microtiter plate were inoculated with 100 μL of complete medium containing 8 × 10^3 cells. The plates were incubated at 37 °C in a humidified 5% CO2 incubator for 18 h prior to the experiments. After medium removal, 100 μL of fresh medium containing the test compound at different concentrations was added to each well in triplicate and incubated at 37 °C for 72 h. The percentage of DMSO in the medium never exceeded 0.25%. This was also the maximum DMSO concentration in all cell-based assays described below.

A549 = test: Antiproliferative MTT assay, A549; format: cell-based, human; conditions: Homo sapiens, A549, 72 h, mean ± SE
Description: as §1

HT-29 = test: Antiproliferative MTT assay, HT-29; format: cell-based, human; conditions: Homo sapiens, HT-29, 72 h, mean ± SE
Description: as §1

MCF-7 = test: Antiproliferative MTT assay, MCF-7; format: cell-based, human; conditions: Homo sapiens, MCF7, 72 h, mean ± SE
Description: as §1

Jurkat = test: Antiproliferative MTT assay, Jurkat; format: cell-based, human; conditions: Homo sapiens, Jurkat, 72 h, mean ± SE
Description: as §1

RS 4;11 = test: Antiproliferative MTT assay, RS 4;11; format: cell-based, human; conditions: Homo sapiens, RS4-11, 72 h, mean ± SE
Description: as §1

SEM cells = test: Antiproliferative MTT assay, SEM; format: cell-based, human; conditions: Homo sapiens, 72 h, mean ± SE
Description: as §1

[1] = tested on: PBL not stimulated with PHA; test: Cytotoxicity in resting peripheral blood lymphocytes; format: cell-based; conditions: Homo sapiens, Lymphocyte, 72 h, MTT, mean ± SEM, read-out: IC50 PBLresting
Description: (§2) Peripheral blood lymphocytes (PBL) from healthy donors were obtained from human peripheral blood (leucocyte rich plasma- buffy coats) from healthy volunteers using the Lymphoprep (Fresenius KABI Norge AS) gradient density centrifugation.
(§3) After extensive washing, cells were resuspended (1.0 × 10^6 cells/mL) in RPMI-1640 with 10% FBS and incubated overnight. For cytotoxicity evaluations in proliferating PBL cultures, non-adherent cells were resuspended at 5 × 10^5 cells/mL in growth medium, containing 2.5 μg/mL PHA (Irvine Scientific). Different concentrations of the test compounds were added, and viability was determined 72 h later by the MTT test. For cytotoxicity evaluations in resting PBL cultures, non-adherent cells were resuspended (5 × 10^5 cells/mL) and treated for 72 h with the test compounds, as described above.

PBL stimulated with PHA = test: Cytotoxicity in PHA-stimulated peripheral blood lymphocytes; format: cell-based; conditions: Homo sapiens, Lymphocyte, 72 h, MTT, mean ± SEM, read-out: IC50 PBLPHA
Description: as §2, §3

HUVECs [2] = test: Cytotoxicity in HUVECs; format: cell-based; conditions: Homo sapiens, HUVEC; primary HUVECs
Description: (§4) HUVECs were prepared from human umbilical cord veins, as previously described. The adherent cells were maintained in M200 medium supplemented with LSGS (Low Serum Growth Supplement), containing FBS, hydrocortisone, hEGF, bFGF, heparin, gentamycin/amphotericin (Life Technologies, Monza, Italy). Once confluent, the cells were detached by a trypsin–EDTA solution and used in experiments from the first to sixth passages.

bovine brain tubulin = test: Inhibition of tubulin polymerization; format: biochemical; conditions: tubulin at 10 μM; read-out: Tubulin assembly IC50 ± S.D
Description: (§5) To evaluate the effect of the compounds on tubulin assembly in vitro[41], varying concentrations of compounds were preincubated with 10 μM bovine brain tubulin in 0.8 M monosodium glutamate (pH adjusted to 6.6 with HCl in a 2.0 M stock solution) at 30 °C and then cooled to 0 °C. After addition of 0.4 mM GTP, the mixtures were transferred to 0 °C cuvettes in a recording spectrophotometer and warmed to 30 °C. Tubulin assembly was followed turbidimetrically at 350 nm. […] The capacity of the test compounds to inhibit colchicine binding to tubulin was measured as described, except that the reaction mixtures contained 1 μM tubulin, 5 μM [^3H]colchicine and 1 or 5 μM test compound.

tubulin = test: Inhibition of [3H]colchicine binding to tubulin; conditions: tubulin 1 μM, [3H]colchicine 5 μM
Description: as §5

[3] = tested on: panel of seven human tumor cell lines; test: Antiproliferative activity, range over panel of seven human tumor cell lines; format: cell-based; conditions: read-out: IC50 values, range over the cell line panel
Description: as §1

HUVECs [4] = test: HUVEC scratch wound motility assay; format: cell-based, human
Description: as §4
The motility assay for HUVECs was based on “scratch” wounding of a confluent monolayer. Briefly, HUVECs (1x10^5) were seeded onto 6-well plates coated with 0.1% collagen type I (BD Biosciences, Italy) in complete medium until a confluent monolayer was formed. The cells were wounded using a pipette tip, and wells were washed with PBS to remove undetached cells. Then, the cells were treated with the test compounds, and, at different times from the scratch, the cells were photographed under a light microscope. At all indicated time points, the wound width was measured in four areas and compared with the initial width.

HUVECs [5] = test: Disruption of capillary-like tubes on Matrigel; format: cell-based, human; conditions: 24 h
Description: as §4
Matrigel matrix (Basement Membrane Matrix, BD Biosciences, Italy) was kept at 4 °C for 3 h, when 230 μL of Matrigel solution was added to each well of a 24-well plate. After gelling at 37 °C for 30 min, gels were overlaid with 500 μL of medium containing 6 × 10^4 HUVECs. The cells were incubated over Matrigel for 6 h to allow capillary tubes to form. Different concentrations of test compound were added in the cultures and incubated for different times, and the disappearance of existing vasculature was monitored and photographed (five fields for each well: the four quadrants and the center) at a 10x magnification. Phase contrast images were recorded using a digital camera and saved as TIFF files. Image analysis was carried out using ImageJ image analysis software, and dimensional (percent area covered by HUVECs and total length of HUVECs network per field) and topological parameters (number of meshes and branching points per field) were determined. Values were expressed as percent change from control cultures grown with complete medium.

SMILES	IC50 (HeLa)	IC50 (A549)	IC50 (HT-29)	IC50 (MCF-7)	IC50 (Jurkat)	IC50 (RS 4;11)	IC50 (SEM cells)	IC50 [1]	IC50 (PBL stimulated with PHA)	IC50 (HUVECs [2])	IC50 (bovine brain tubulin)	Colchicine binding % inhibition ± S.D, 1 μM drug (tubulin)	Colchicine binding % inhibition ± S.D, 5 μM drug (tubulin)	IC50 ([3]; Homo sapiens)	melting point	HUVEC cell migration (wound healing) (HUVECs [4]; 100 nM, 6 h and 24 h)	antivascular effect on Matrigel preformed tubular structures (HUVECs [5]; 100 nM (highest concentration))	IC50 [3]	HUVEC cell migration (wound healing) (HUVECs [4]; 10 nM, 6 and 24 h)	antivascular effect on Matrigel preformed tubular structures (HUVECs [5]; 10 nM)
COc1cc(-c2nc(C)oc2-c2ccc3ccccc3c2)cc(OC)c1OC [Compound 4a, 4-(3,4,5-Trimethoxyphenyl)-2-methyl-5-(naphthalen-3-yl)oxazole]	2.1 ± 0.5 nM	12.6 ± 5.4 nM	0.5 ± 0.1 nM	1.1 ± 0.5 nM	73.2 ± 5.2 nM	14.3 ± 6.2 nM	40.2 ± 11 nM	15.5 ± 1.5 µM	21.1 ± 1.2 µM	> 100 µM	1200 ± 100 nM	47 ± 0.8%	74 ± 5%	0.5 to 73.2 nM	104 to 116 °C	–	–	–	–	–
CCOc1ccc(-c2nc(C)oc2-c2cc(OC)c(OC)c(OC)c2)cc1 [Compound 5f, 4-(4-Ethoxyphenyl)-5-(3,4,5-trimethoxyphenyl)-2-methyloxazole]	2 ± 0.8 nM	1.5 ± 0.44 nM	1.9 ± 0.8 nM	0.4 ± 0.08 nM	50.7 ± 10.8 nM	11.9 ± 6.3 nM	13.3 ± 4.2 nM	34.5 ± 4.5 µM	17.7 ± 2.1 µM	> 100 µM	1300 ± 100 nM	–	72 ± 2%	–	116 to 118 °C	significantly reduced	did not show a significant antivascular effect	–	–	–
COc1ccc(/C=C\c2cc(OC)c(OC)c(OC)c2)cc1O [CA-4, combretastatin A-4, reference compound]	4 ± 0.1 nM	–	–	–	5 ± 0.6 nM	0.8 ± 0.2 nM	5 ± 0.1 nM	–	–	–	[…]	93 ± 0.8%	–	–	–	–	–	0.8 to 3100 nM	[…]	significant antivascular activity
